Results taken from the supplement of paper PMC10307832.

Assays:
Test in all cases: relative viability (nuclei count vs DMSO), 5 days (fraction); higher = more cells survive
RO-3306 + Foretinib = compound: C1=CC2=C(C=CC(=C2)C=C3C(=O)NC(=NCC4=CC=CS4)S3)N=C1 [RO-3306] + COc1cc2c(Oc3ccc(NC(=O)C4(C(=O)Nc5ccc(F)cc5)CC4)cc3F)ccnc2cc1OCCCN1CCOCC1 [Foretinib] (partner 0.25 µM)
How it was run: (§1)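 Values are medians from duplicate plates. Each reflects relative viability, defined as the nuclei count of treated wells over that of vehicle wells. Lung cancer cell lines in 1536-well plates were pin-tool dosed one day after seeding with one drug alone or with a fixed anchor-drug dose plus five library-drug doses (not always all listed) in √10 steps, then fixed, stained and imaged at 4× after 5 days.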

RO-3306 + Decitabine = compound: C1=CC2=C(C=CC(=C2)C=C3C(=O)NC(=NCC4=CC=CS4)S3)N=C1 [RO-3306] + Nc1ncn([C@H]2C[C@H](O)[C@@H](CO)O2)c(=O)n1 [Decitabine] (partner 2 µM)
How it was run: as §1

[1] = compound: O=S(=O)(c1ccccc1)N(CC(F)(F)F)c1ccc(C(O)(C(F)(F)F)C(F)(F)F)cc1 + C[C@@H](Oc1cc(-c2cnn(C3CCNCC3)c2)cnc1N)c1c(Cl)ccc(F)c1Cl [Crizotinib] (partner 1 µM)
How it was run: as §1

[2] = compound: O=S(=O)(c1ccccc1)N(CC(F)(F)F)c1ccc(C(O)(C(F)(F)F)C(F)(F)F)cc1 + NC(=O)Nc1cc(-c2cccc(F)c2)sc1C(=O)N[C@H]1CCCNC1 [AZD7762] (partner 0.2 µM)
How it was run: as §1

[3] = compound: O=S(=O)(c1ccccc1)N(CC(F)(F)F)c1ccc(C(O)(C(F)(F)F)C(F)(F)F)cc1 + CCNC(=O)c1noc(-c2cc(C(C)C)c(O)cc2O)c1-c1ccc(CN2CCOCC2)cc1 [Luminespib] (partner 0.01 µM)
How it was run: as §1

Cell Line	relative viability (RO-3306 + Foretinib; first compound 0.01 µM)	relative viability (RO-3306 + Foretinib; first compound 0.03162 µM)	relative viability (RO-3306 + Foretinib; first compound 0.1 µM)	relative viability (RO-3306 + Foretinib; first compound 0.3162 µM)	relative viability (RO-3306 + Foretinib; first compound 1 µM)	relative viability (RO-3306 + Decitabine; first compound 0.01 µM)	relative viability (RO-3306 + Decitabine; first compound 0.03162 µM)	relative viability (RO-3306 + Decitabine; first compound 0.1 µM)	relative viability (RO-3306 + Decitabine; first compound 0.3162 µM)	relative viability (RO-3306 + Decitabine; first compound 1 µM)	relative viability ([1]; first compound 0.8 µM)	relative viability ([1]; first compound 2.53 µM)	relative viability ([1]; first compound 8 µM)	relative viability ([2]; first compound 0.8 µM)	relative viability ([2]; first compound 2.53 µM)	relative viability ([2]; first compound 8 µM)	relative viability ([3]; first compound 0.8 µM)	relative viability ([3]; first compound 2.53 µM)	relative viability ([3]; first compound 8 µM)
NCI-H2347	0.982	0.503	0.868	0.702	0.741	0.643	0.597	0.592	0.574	0.645	0.873	0.658	0.751	0.942	0.724	0.742	0.512	0.41	0.286
NCI-H2405	1.05	1.06	1.03	1.03	0.961	0.703	0.751	0.803	0.685	0.727	0.884	0.837	0.9	0.907	0.665	0.705	0.718	0.616	0.646
NCI-H3122	0.987	0.984	0.94	0.969	1.09	0.406	0.345	0.379	0.461	0.42	0.271	0.253	0.259	1.02	0.935	0.801	0.0579	0.0537	0.115
PC-3 [JPC-3]	1.01	1	1.01	1.07	1.03	0.84	0.777	0.82	0.802	0.817	1.07	0.907	0.927		0.763	0.75	0.654	0.717	0.679
PC-14	0.968	0.739	0.935	1.04	0.917	0.196	0.209	0.222	0.277	0.244	1.1	0.893	0.932	0.216	0.228	0.216	0.153	0.132	0.19
RERF-LC-KJ	0.844	0.683	0.795	0.906	0.958	0.763	0.715	0.689	0.75	0.665	0.787	0.749	0.773	0.973	0.889	0.825	1.29	1.17	1.17
